In patent EP4382122A1, “PEPTIDE COMPLEX IPF-H2A FOR MODULATION IMMUNE FUNCTION OF THE HUMAN BODY” (Zhabilov, Harry H., priority 2022, dated 2024):
Read-outs that look alike come from different tables or passages of the source.

How the values were obtained:
HSV-1 (Victoria strain) [1] = assay: CPE inhibition test with MTT Assay, HSV-1 in Vero cells; format: cell-based, Herpes Simplex virus type 1 (HSV-1)
HSV-1/HSV-2 [2] = assay: Infectious viral yield, HSV-1/HSV-2 in Vero cells (text, type not separated); format: cell-based
HSV-1/HSV-2 [3] = assay: CPE inhibition test, microscopic, HSV-1/HSV-2 in Vero cells (type not separated); format: cell-based; conditions: infected Vero cells, at MNC, 72 hours of treatment
Experimental: Dose-dependent curves were derived to determine the inhibitory concentration leading to 50% inhibition of the viral cytopathic effect (IC50).
Initially, the antiviral activity of the IPF test substance was assessed by a CPE inhibition test. […] Cell cultures were observed daily under a light microscope as to theCPE development. […] The results of the experiments were evaluated on the basis of comparison with virus-free and no-added cells (cell control),and with cells infected with HSV-1/HSV-2 without substance addition (viral control).

Vero cells [4] = assay: Cytotoxicity on Vero cells, MTT Assay; conditions: 72 h
Experimental: Using the solution, a series of dilutions are done ex tempore with a nutrient medium DMEM (Dulbecco's Modified Eagle Medium, Sigma-Aldrich, Germany), which includes 2% fetal bovine serum (FBS, Gibco) and 1% antibiotic solution (100 U/ml penicillin and 100 µg/ml streptomycin sulphate (Gibco, USA)) (working solutions), which solutions are then filtered through sterile antibacterial filters with a pore diameter of 0.45 µm. As a model system in the tests was used a kidney monolayer cell line of African Green Monkey (Cercopithecus aethiops).
Cells were cultured on DMEM nutrient medium with termoinactivated 10% FBS, 1% sodium pyruvate (Sigma- Aldrich, Germany) and antibiotics (penicillin (100 U/ml), streptomycin sulphate (100 µg/ml) (growingmedium). The cell cultures were incubated at 37 °C at 5% CO2 and the required humidity. The blending of the Vero cells was done at 1:3 - 1:5 at a density of about 2 × 10^5 cells/ml, then resuspended several times and transferred onto cell culture mattresses (25 cm^2). Before inoculating the cells with virus and/or IPF-H2A dilutions, the monolayer was washed three times with phosphate-buffered saline (PBS) with pH 7.4 for 1- 2 minutes, after which the solution was removed. All experiments were performed during the exponential phase of cell growth. […]

HSV-1 (Victoria strain) [5] = assay: Infectious viral yield of HSV-1 in Vero cells (Reed and Muench titration)
Experimental: (§1) Viral strains were cultured in DMEM nutrient medium containing 2% FBS,1% antibiotic solution (100 U/ml penicillin G sodium and 100 µg/ml streptomycin sulphate).
(§2) Infectious virus titer was account for, also by Reed and Muench's method of final dilutions, and expressed as TCID50 (50% Tissue Culture Infectious Dose) and also quantitatively through the colorimetric MTT method. After triple freezing and thawing, the resulting virus- containing was centrifuged (2500 rpm/min, 15 min at 4 °C), aliquoted and frozen at -80°C.
(§3) Immediately prior to work, ten-fold logarithmic dilutions of the relevant virus strain were prepared in DMEM nutrient medium containing 2% FBS, 1% antibiotic solution (100 U/mL penicillin G sodium and 100 µg/mL streptomycin sulphate). When the cell monolayer reached between 70- 80% confluence (concentration 5 × 10^3 cells/well, usually after 24 h), the nutrient medium was removed from the wells. The cell monolayer was infected with the prepared viral dilutions of 0.1 mL. With each viral dilution, 4 wells were infected. The virus was adsorbed for 1 h ina thermostat at a temperature of 37°C, then to each well was added 0.1 mL of nutrient medium. Four wells containing uninfected cells were used for cell control. Thus treated plate was incubated in a thermostat at a temperature of 37°C and at the required humidity. In the event of a cytopathic effect (CPE) (appearance of round cells, unevenly disseminated in the cell monolayer, with a tendency to formfoci), it was waited until the development of 2-3 + (50 - 75% of the cell monolayer) or until it stopped progressing. The viral infection titer is expressed as TCID50 (50% Tissue Culture Infectious Dose). The presence or absence of a viral cytopathic effect is determined by the following formula: T = (logofdilution,where%infectedisover50%) + (proportionalityfactor×logofdilutionfactor). […] Proportionality factor = [(%infectedover50%)−50%][(%infectedover50%)−(% infected below; 50%)].
(§4) Extracellular virus samples were titrated in a 24-hour Vero monolayer in 96-well plates, by taking into account the infectious viral titer in log10, according to the final dilution method of Reed & Muenh. Differences in infectious viral titers between experimental and control samples are expressed as Δlog. Based on the reported results, dose-response graphs were plotted and minimum inhibitory concentrations 50 (MIC50) were determined. Values of Δlog10 ≥ 1 are considered to be reliable results for the performed tests.

HSV-2 (Bja strain) = assay: Infectious viral yield of HSV-2 in Vero cells (Reed and Muench titration)
Experimental: as §1, §2, §3, §4

Vero cells [6] = assay: Cytotoxicity on Vero cells, microscopic observation of cell monolayer morphology; conditions: 72 h
Experimental: For analysis of the anti-proliferative and potentially antiviral properties of the IPF-H2A complex, according to the present invention, in cell culture, IPF-H2A was dissolved to an initial concentration of 50 mg/ml (background solution). Using the solution, a series of dilutions are done ex tempore with a nutrient medium DMEM (Dulbecco's Modified Eagle Medium, Sigma-Aldrich, Germany), which includes 2% fetal bovine serum (FBS, Gibco) and 1% antibiotic solution (100 U/ml penicillin and 100 µg/ml streptomycin sulphate (Gibco, USA)) (working solutions), which solutions are then filtered through sterile antibacterial filters with a pore diameter of 0.45 µm. As a model system in the tests was used a kidney monolayer cell line of African Green Monkey (Cercopithecus aethiops). […]

HCoV-229E [7] = format: cell-based, human coronavirus HCoV-229E; conditions: for Δlog10: HCoV-229E, vs virus control
HCoV-229E [8] = format: cell-based, human coronavirus HCoV-229E
[9] = tested on: human embryonic lung (Lep) cell line; assay: Cytotoxicity on Lep cells, MTT test; parameters: CD50: unit not given beside the values
[10] = tested on: human embryonic lung (Lep) cell line; assay: Cytotoxicity on Lep cells, microscopic surveillance of cell monolayer morphology; conditions: 96 hours
Experimental: As a model system is used monolayer of human embryonic lung (Lep) cell line. The cells are cultivated in DMEM with added thermally inactivated 10% FBS, 1% Sodium pyruvate (Sigma-Aldrich, Germany) and antibiotics (penicillin- 100 U/ml), streptomycin sulphate (100 µg/ml) (growth medium) and the cell cultures are incubated at 37°C in 5% CO2 and in the presence of the required humidity.
MTT analysis of the cell survival and proliferation was performed in a wide range of concentrations of the tested substance. […] The test substance is applied in concentration range 0.0001- 1 mg/ml, while the anti-nfluenza medicine Tamiflu® - 0.001- 7.5 mg/ml for 96 hours. The untreated Lep cells whose survival was accepted as 100%, were used as a negative control. […] The analysis of the cell morphology surveillance is synchronized with the MTT analysis of the cell surveillance.

Nc1nc2c(ncn2COCCO)c(=O)[nH]1 [ACV, 2-amino-1,9-dihydro-9-((2-hydroxyethoxy)methyl)-6H-purin-6-one]
% cellular protection at MNC (HSV-1 (Victoria strain) [1]; HSV-1 (Victoria strain), Vero cells, MTT Assay): 100%
protection (HSV-1 (Victoria strain) [1]; HSV-1 strain Victoria, concentration range of 0.0005- 0.01 mg/mL): 100%
concentration range that effectively inhibits the yield of infectious viral progeny / replication (HSV-1/HSV-2 [2]): 0.00001 to 1 mg/mL
CPE suppression of HSV-1/HSV-2 (HSV-1/HSV-2 [3]): less pronounced CPE inhibitory effect
CD50 (Vero cells [4]): 0.5 ± 0.1 mg/mL
Viral yield (log10 TCID50) (HSV-1 (Victoria strain) [5]; concentration 0.0005 mg/mL): 4.500 ± 0.763 log10 TCID50
Δlog10 (HSV-1 (Victoria strain) [5]; concentration 0.0005 mg/mL): 0.8
Viral yield (log10 TCID50) (HSV-1 (Victoria strain) [5]; concentration 0.005 mg/mL): 4.530 ± 0.166 log10 TCID50
Δlog10 (HSV-1 (Victoria strain) [5]; concentration 0.005 mg/mL): 0.8
Viral yield (log10 TCID50) (HSV-1 (Victoria strain) [5]; concentration 0.05 mg/mL): 4.300 ± 0.763 log10 TCID50
Δlog10 (HSV-1 (Victoria strain) [5]; concentration 0.05 mg/mL): 1.0
Viral yield (log10 TCID50) (HSV-1 (Victoria strain) [5]; concentration 0.1 mg/mL): 4.000 ± 0.288 log10 TCID50
Δlog10 (HSV-1 (Victoria strain) [5]; concentration 0.1 mg/mL): 1.6
Viral yield (log10 TCID50) (HSV-1 (Victoria strain) [5]; concentration 1 mg/mL): 2.7 ± 0.500 log10 TCID50
Δlog10 (HSV-1 (Victoria strain) [5]; concentration 1 mg/mL): 2.6
Viral yield (log10 TCID50) (HSV-2 (Bja strain); concentration 0.0005 mg/mL): 5.567 ± 0.000 log10 TCID50
Viral yield (log10 TCID50) (HSV-2 (Bja strain); concentration 0.005 mg/mL): 5.300 ± 0.288 log10 TCID50
Δlog10 (HSV-2 (Bja strain); concentration 0.005 mg/mL): 0.8
Viral yield (log10 TCID50) (HSV-2 (Bja strain); concentration 0.05 mg/mL): 4.500 ± 0.125 log10 TCID50
Δlog10 (HSV-2 (Bja strain); concentration 0.05 mg/mL): 1.0
Viral yield (log10 TCID50) (HSV-2 (Bja strain); concentration 0.1 mg/mL): 4.300 ± 0.237 log10 TCID50
Δlog10 (HSV-2 (Bja strain); concentration 0.1 mg/mL): 1.0
Viral yield (log10 TCID50) (HSV-2 (Bja strain); concentration 1 mg/mL): 4.005 ± 0.166 log10 TCID50
Δlog10 (HSV-2 (Bja strain); concentration 1 mg/mL): 1.3
CD50 (Vero cells [6]): 0.5 ± 0.02 mg/mL

CCOC(=O)C1=C[C@@H](OC(CC)CC)[C@H](NC(C)=O)[C@@H](N)C1 [Tamiflu, oseltamivir phosphate]
concentration range that effectively inhibits the infectious viral yield / replication (HCoV-229E [7]): 0.00001 to 1 mg/mL
Δlog10 (HCoV-229E [7]; concentration 0.0001 mg/ml): 0.8
Δlog10 (HCoV-229E [7]; concentration 0.001 mg/ml): 1.3
Δlog10 (HCoV-229E [7]; concentration 0.01 mg/ml): 1.3
Δlog10 (HCoV-229E [7]; concentration 0.1 mg/ml): 1.3
Δlog10 (HCoV-229E [7]; concentration 1.0 mg/ml): 1.8
inhibition of CPE of HCoV-229E (HCoV-229E [8]): Less expressed CPE inhibition
CD50 ([9]; 96 hours, MTT test): 2.5 ±0.06
MNC ([9]; 96 hours, MTT test): 0.005 ± 0.15 mg/mL
toxicity relative to IPF-H2A peptide complex ([9]; comparison of cell survival data): twentyfold more toxic
CD50 [10]: 2.5 ±0.02
MNC [10]: 0.001 ± 0.6 mg/mL
